Consider 14 compounds from paper PMC7782983, “Anion inhibition studies of the Zn(II)-bound ι-carbonic anhydrase from the Gram-negative bacterium Burkholderia territorii” (Journal of Enzyme Inhibition and Medicinal Chemistry, 2021).

Structures are written as SMILES. Like-named read-outs stand apart in the source and are kept apart here.

This experiment concerns the target BteCAι. In words: stopped-flow CO2 hydrase assay. The class given is biochemical, Burkholderia territorii. Particulars: read-out: KI (mM)^a / BteCAι^d.
The mark [1] stands for this setting: CO2 hydration, HEPES pH 7.5, 20 mM NaClO4, 15 min preincubation, room temperature, Zn(II) enzyme.

As to `OB(O)c1ccccc1` [PhB(OH)2], the Ki under setting [1] came to 0.009 mM.
Turning to `NS(N)(=O)=O` [NH2SO2NH2], the Ki under setting [1] came to 0.086 mM.
Take `CCN(CC)C(=S)S` [EtNCS2^−]: the Ki under setting [1] stood at 0.81 mM.
The same measure, in the same setting: to `O=C(O)O` [CO3^2−] belongs 4.4 mM.
In the case of `O=[As](O)(O)c1ccccc1` [PhAsO3H2], the Ki was determined as 0.008 mM.
Consider `N#CS` [SCN^−], for which, under setting [1], the Ki amounted to 6.1 mM.
Take `[O]=[Sn]([OH])[OH]` [SnO3^2−]: under setting [1], the Ki is 0.094 mM.
For `O=S(=O)(O)OOS(=O)(=O)O` [S2O8^2−], the Ki under setting [1] was found to be 7.4 mM.
Take `NS(=O)(=O)O` [NH2SO3H]: under setting [1], the Ki is 0.0062 mM.
For `N#C[SeH]` [SeCN^−], the Ki under setting [1] was found to be 6.6 mM.
Take `Cl` [Cl^−]: the Ki under setting [1] is 3.1 mM.
Regarding `O=C(O)O` [HCO3^−], the Ki under setting [1] came to 0.94 mM.
Same read-out and setting: to `N#CO` [CNO^−] belongs 0.79 mM; to `O=S(=O)(O)O` [SO4^2−], 5.8 mM.
